Laboratory results taken from US20220175893A1, “COMBINATIONS OF TANNASE AND PROBIOTIC FORMULATIONS AND METHODS OF USE FOR IMPROVING TANNIN METABOLISM” (THE TEXAS A&M UNIVERSITY SYSTEM, priority 2019, published 2022).
Where two headings read alike, the source gives them in different places. Marks after values point to notes of the source that are not given here.

Legend:
[1] = Stability of gallic acid at pH 5.5 over 24 h; format: physicochemical
rabbits [2] = assay: Oral LD50 in rabbits (literature); format: in vivo, rabbit; conditions: for equivalent dose of the LD50 for a human equivalent of 75 kg: for 10 days
Procedure: For a human equivalent of 75 kg, the equivalent dose would be 210,000 and 255,000 mg/day for 10 days.

rabbits [3] = conditions: cited from earlier work
3T3-L1 adipocytes = conditions: cited from earlier work
[4] = target: T1, Tannase sourced from Aspergillus oryzae (Aspergillus oryzae, UniProt P78581); assay: Tannase (10^−3 U/mL) hydrolysis of galloyl glycosides, LC-MS; format: biochemical
T1 construct: purchased
Procedure: Standards solutions of monogalloyl glucose, pentagalloyl glucose, and a gallotannin isolate were incubated with tannase at 10^−3 U/mL to characterize the by-products and relative rates of galloyl derivative hydrolysis. 250 μL of 200 ppm monogalloyl glucose or pentagalloyl glucose were incubated with 650 μL of buffer set to the enzyme's optimum conditions (pH 5.5, 0.1 M citric acid buffer, 30° C.), and 100 μL of tannase 10^−3 U/mL for final standard concentrations of 50 ppm. […] Experiments were performed in a static water bath and prepared in triplicate for each time point at 0, 0.016, 0.033, 0.050, 0.083, 0.167, 0.5, 1, 1.5, 2, 3, 4 h. To end enzymatic activity, solutions were immediately diluted with 1000 μL 0.1% formic acid MeOH. Lastly, samples were filtered with a 0.45 μm syringe filter prior to LC-MS analysis.
Galloyl derivatives were characterized and quantified by use of LC-MS on a Thermo Finnigan HPLC. Separations were in reversed-phase using a Finnigan Surveyor HPLC coupled to a Surveyor PDA detector and gradient separations were performed using a Phenomenex Kinetex™ (Bannockburn, II) C18 column, (150×4.6 mm, 2.6 μm) at room temperature. Injections were made into the column by use of a 50 μL sample loop. […] A gradient was run of 0% Phase B for 2 min and changed to 10% Phase B in 4 min, 10% Phase B was held to 10 min, 10 to 40% Phase B in 25 min, and 40% to 65% Phase B in 35 min, 65% to 85% Phase B in 41 min, 85% was held to 49 min before returning to initial conditions. The electrospray interface worked in negative ionization mode. Source and capillary temperatures were set at 325° C., source voltage was 4.0 kV, capillary voltage was set at −47 V, and collision energy for MS/MS analysis was set at 35 eV. The instrument operated with sheath gas and auxiliary gas (N2) flow rates set at 10 units/min and 5 units/min, respectively. The instrument was tuned specifically for pentagalloyl glucose. […] Digalloyl glucoses, and trigalloyl glucoses were quantified at 280 nm and reported as equivalents of monogalloyl glucose. Tetragalloyl glucose and higher were quantified and reported as pentagalloyl glucose equivalents.
Tannase sourced from Aspergillus oryzae was incubated with standard solutions of monogalloyl glucose, pentagalloyl glucose, and a gallotannin isolate sourced from mango in an effort to characterize and quantify the intermediates formed during hydrolysis. […] Characterization of the different galloyl derivatives that can be formed during tannase hydrolysis is critical as they are likely to have different bio efficacies.

tannase = target: T2, tannase (Aspergillus oryzae, UniProt P78581); assay: Tannase (20 U/mL) hydrolysis to free gallic acid, rhodanine assay; format: biochemical
T2 construct: purchased
T2 sequence (P78581 19-588): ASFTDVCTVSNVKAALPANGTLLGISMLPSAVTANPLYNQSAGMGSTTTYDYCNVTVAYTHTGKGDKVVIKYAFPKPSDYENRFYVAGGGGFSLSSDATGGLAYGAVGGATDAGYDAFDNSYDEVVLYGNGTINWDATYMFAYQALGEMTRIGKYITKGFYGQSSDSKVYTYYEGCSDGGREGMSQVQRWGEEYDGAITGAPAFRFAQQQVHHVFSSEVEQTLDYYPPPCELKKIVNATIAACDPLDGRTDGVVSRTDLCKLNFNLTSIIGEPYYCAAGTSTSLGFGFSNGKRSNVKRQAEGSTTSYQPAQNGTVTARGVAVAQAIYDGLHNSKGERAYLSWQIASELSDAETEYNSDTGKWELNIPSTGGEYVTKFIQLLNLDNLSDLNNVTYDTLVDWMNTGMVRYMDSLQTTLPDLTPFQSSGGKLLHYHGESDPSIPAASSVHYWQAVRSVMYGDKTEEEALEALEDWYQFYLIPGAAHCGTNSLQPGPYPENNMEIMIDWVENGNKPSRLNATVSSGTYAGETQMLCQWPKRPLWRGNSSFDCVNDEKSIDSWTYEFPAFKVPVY
Procedure: 200 uL of 641±16 and 2051±46 ppm GAE gallotannin isolate was aliquotted into test tubes and made up to 1 mL with 20 U/mL tannase hydrated in pH 5.5, 0.1 M citrate buffer. Samples were incubated for 0, 0.16 (10 min), 0.5, 1, 2, 4, 6, 12, and 24 h at 35° C. in a static water bath. After each time point had elapsed, 1 mL of 0.1% formic acid MeOH was added to each test tube. 50 and 100 ppm monogalloyl glucose was also treated with tannase under the same conditions. The total pro-gallic acid content of the gallotannin isolate and monogalloyl glucose were quantified by the colorimetric rhodanine assay modified from Inoue & Hagerman (1988). 600 μL of 0.667% rhodanine in methanol was added to 400 μL of hydrolyzed tannin fraction sample. After 10 min, 400 μL of 0.5 M NaOH was added to develop color for 20 min until bringing the final volume to 10 mL with deionized water. Absorbance was measured at 520 nm.

O=C(O)c1cc(O)c(O)c(O)c1 [Gallic Acid, gallic acid]
stability of gallic acid at the conditions of the method ([1]; 50 and 100 ppm gallic acid in pH 5.5 buffer, after 24 h): did not show any indication of degradation
Gallic acid concentration (stability at pH 5.5) ([1]; gallic acid 50 mg/L, pH 5.5, 0 h): 48.2 ± 1.28 ^a mg/L
Gallic acid concentration (stability at pH 5.5) ([1]; gallic acid 50 mg/L, pH 5.5, 1 h): 50.4 ± 0.45 ^b mg/L
Gallic acid concentration (stability at pH 5.5) ([1]; gallic acid 50 mg/L, pH 5.5, 2 h): 51.2 ± 0.62 ^b mg/L
Gallic acid concentration (stability at pH 5.5) ([1]; gallic acid 50 mg/L, pH 5.5, 12 h): 47.2 ± 0.87 ^b mg/L
Gallic acid concentration (stability at pH 5.5) ([1]; gallic acid 50 mg/L, pH 5.5, 24 h): 49.4 ± 0.37 ^b mg/L
Gallic acid concentration (stability at pH 5.5) ([1]; gallic acid 100 mg/L, pH 5.5, 0 h): 107 ± 3.07 ^a mg/L
Gallic acid concentration (stability at pH 5.5) ([1]; gallic acid 100 mg/L, pH 5.5, 1 h): 102 ± 2.43 ^b mg/L
Gallic acid concentration (stability at pH 5.5) ([1]; gallic acid 100 mg/L, pH 5.5, 2 h): 111 ± 1.63 ^b mg/L
Gallic acid concentration (stability at pH 5.5) ([1]; gallic acid 100 mg/L, pH 5.5, 12 h): 97.9 ± 1.38 ^b mg/L
Gallic acid concentration (stability at pH 5.5) ([1]; gallic acid 100 mg/L, pH 5.5, 24 h): 108 ± 1.11 ^b mg/L
equivalent dose of the LD50 for a human equivalent of 75 kg (rabbits [2]): 210,000 mg/day
oral LD50 (rabbits [3]; rabbit, in vivo, po): 2800 mg/kg/day

Oc1cccc(O)c1O [PG, pyrogallol]
adipogenesis and lipid accumulation (3T3-L1 adipocytes): inhibit adipogenesis and reduce lipid accumulation
thermogenesis (3T3-L1 adipocytes): promotes thermogenesis

O=C(OC[C@H]1O[C@@H](OC(=O)c2cc(O)c(O)c(O)c2)[C@H](OC(=O)c2cc(O)c(O)c(O)c2)[C@@H](OC(=O)c2cc(O)c(O)c(O)c2)[C@@H]1OC(=O)c1cc(O)c(O)c(O)c1)c1cc(O)c(O)c(O)c1 [pentagalloyl glucose]
total pro-gallic acid content generated (molar basis) ([4]; 2 h incubation): 45.5±0.53%
pentagalloyl glucose hydrolyzed ([4]; 2 h incubation, pH 5.5, 30° C.): 97.2±0.27%

O=C(OC[C@H]1O[C@@H](OC(=O)c2cc(O)c(O)c(OC(=O)c3cc(O)c(O)c(O)c3)c2)[C@H](OC(=O)c2cc(O)c(O)c(OC(=O)c3cc(O)c(O)c(O)c3)c2)[C@@H](OC(=O)c2cc(O)c(O)c(OC(=O)c3cc(O)c(O)c(O)c3)c2)[C@@H]1OC(=O)c1cc(O)c(O)c(OC(=O)c2cc(O)c(O)c(O)c2)c1)c1cc(O)c(O)c(OC(=O)c2cc(O)c(O)c(O)c2)c1 [tannic acid]
equivalent dose of the LD50 for a human equivalent of 75 kg (rabbits [2]): 255,000 mg/day
margin of the highest selected study dose (566 mg/L) below the LD50 dose (rabbits [2]; human equivalent of 75 kg): 451 fold
oral LD50 (rabbits [3]; rabbits, for 10 days): 3400 mg/kg/day

monogalloyl glucose
time to reach the same amount of generated gallic acid as pentagalloyl glucose at 2 h [4]: 4 h
total pro-gallic acid content generated (molar basis) ([4]; 2 h incubation): 28.9±0.26%
hydrolysis to free gallic acid (tannase; 1 h incubation with 20 U/mL of tannase): completely hydrolyzed to free gallic acid
Free gallic acid from hydrolysis with 20 U/mL of tannase (tannase; monogalloyl glucose 50 mg/L, pH 5.5, 0 h): 1.26 ± 0.13 ^a mg/L
Free gallic acid from hydrolysis with 20 U/mL of tannase (tannase; monogalloyl glucose 50 mg/L, pH 5.5, 1 h): 19.9 ± 0.13 ^b mg/L
Free gallic acid from hydrolysis with 20 U/mL of tannase (tannase; monogalloyl glucose 50 mg/L, pH 5.5, 2 h): 20.2 ± 0.88 ^b mg/L
Free gallic acid from hydrolysis with 20 U/mL of tannase (tannase; monogalloyl glucose 50 mg/L, pH 5.5, 12 h): 20.1 ± 0.25 ^b mg/L
Free gallic acid from hydrolysis with 20 U/mL of tannase (tannase; monogalloyl glucose 50 mg/L, pH 5.5, 24 h): 19.9 ± 0.87 ^b mg/L
Free gallic acid from hydrolysis with 20 U/mL of tannase (tannase; monogalloyl glucose 100 mg/L, pH 5.5, 0 h): 1.76 ± 0.25 ^a mg/L
Free gallic acid from hydrolysis with 20 U/mL of tannase (tannase; monogalloyl glucose 100 mg/L, pH 5.5, 1 h): 39.7 ± 0.50 ^b mg/L
Free gallic acid from hydrolysis with 20 U/mL of tannase (tannase; monogalloyl glucose 100 mg/L, pH 5.5, 2 h): 42.5 ± 1.01 ^b mg/L
Free gallic acid from hydrolysis with 20 U/mL of tannase (tannase; monogalloyl glucose 100 mg/L, pH 5.5, 12 h): 39.2 ± 1.89 ^b mg/L
Free gallic acid from hydrolysis with 20 U/mL of tannase (tannase; monogalloyl glucose 100 mg/L, pH 5.5, 24 h): 35.7 ± 3.14 ^b mg/L
